Measured values published in patent US6770671B2, “7,8-dihydro-xanthenone-8-carboxylic acid derivative and novel microbe producing the same” (Korea Research Institute of Bioscience and Biotechnology, priority 2000, dated 2004).
Values joined by “and” are separate entries in the source; they are usually repeats but may differ in a detail not shown here. Equal values may be shown once. “Also recorded” adds a separate entry of the source.

Assays:
[1] = system: VEGF-induced proliferation of HUVEC; assay: VEGF-induced HUVEC proliferation (acid phosphatase assay); format: cell-based, human; settings: VEGF 20 ng/ml; 0.004-10 μg/ml compound; 48 hours; FIG. 1
From the text: (§1) To determine the inhibitory effect of the compound represented by the chemical formula 1 on angiogenesis, endothelial cells were used as a model on the basis that they are migrated and differentiated into capillary tubes under a specific culture condition, that is, in the presence of angiogenic factors such as VEGF, bFGF, etc. Stimulation by angiogenic factors triggers complex, intracellular reactions of endothelial cells and causes them to undergo cell proliferation and differentiation, resulting in the induction of angiogenesis. […] In gelatin-coated 96-well plates, HUVEC cultured in an M199 medium (20% FBS, 3 ng/ml bFGF, 100 μg/ml heparin) was plated at a density of 10^4 cells/well and cultured for 24 hours under the condition of serum starvation. Thereafter, VEGF and bFGF were independently added at a concentration of 20 ng/ml per well and ACRL-B4 was also added at concentrations of 0.004, 0.02, 0.08, 0.4, 2 and 10 μg/ml while control wells were treated with angiogenic factors only. After 48 hours incubation, the inhibition of HUVEC proliferation by the ACRL-B4 was quantitatively analyzed by an acid phosphatase assay.

[2] = system: bFGF-induced proliferation of HUVEC; assay: bFGF-induced HUVEC proliferation (acid phosphatase assay); format: cell-based, human; settings: bFGF 20 ng/ml; 0.004-10 μg/ml compound; 48 hours; FIG. 1
From the text: as §1

[3] = system: angiogenesis in chorioallantoic membrane; assay: Chorioallantoic membrane (CAM) assay using fertilized eggs; format: in vivo; settings: for Inhibition ratio (%): percentage of positive eggs to total tested eggs
Experimental: <4-2> Inhibitory Effect on in vivo Angiogenesis Chorioallantoic membrane assay using fertilized eggs was used to examine whether the novel compound ACRL-B4 of the present invention is effective to inhibit angiogenesis in vivo.
After being grown at 37° C. for three days at a humidity of 90% in an incubator, fertilized eggs were deprived of 2 ml of albumin through a 18-gauge subcutaneous injection needle. On the fourth day, a circular window was cut into each of the eggs and the outer layers of their chorioallantoic membranes were removed. Separately, pieces of thermanox coverslip were coated with the ACRL-B4 compound dissolved in ethanol at the concentration of 1 and 5 μg/coverslip and the ethanol was evaporated. On day 4.5, the thermanox coverslip were placed on the embryonic chorioallantoic membranes of the embryos. After 2 days incubation at 37° C., 1-2 ml of 10% fat emulsion was injected into chorioallantois and observed blood vessel formation during an embryogenesis or development procedure under a microscope. As a positive control, 1 μg/egg of retinoic acid was used and a negative control was non-treated coverslip.

[4] = system: Lewis lung carcinoma 3LL cells; assay: In vivo tumor growth, 3LL Lewis lung carcinoma in C57BL/6 mice; design: species or system mouse; settings: for inhibition of tumor growth: 3LL in C57BL/6 mice
Experimental: Into the backs of C57BL/6 mice 4-5 weeks old, 10^6 3LL cancer cells (Korean Collection for Type Culture at Korea Research Institute of Bioscience and Biotechnology) were subcutaneously transplanted. When the tumors were grown to sizes of 100-250 mm^3, the mice were randomly mixed and divided into 4 groups, each of 6 members, to which drugs were administered. For Group 1, only a solvent was used, while the novel compound ACRL-B4 represented by the chemical formula 1 was intraperitoneally injected every other day at doses of 30 mg/kg, 15 mg/kg and 5 mg/kg to Groups 2 to 4, respectively, under the monitoring of tumor sizes and body weights. The test compound was dissolved in a solvent mixture of 85% physiological saline, 5% DMSO (dimethylsulfoxide) and 10% cremophore.
Tumor sizes were calculated according to the following mathematical formula 1, and since the transplantation of cancer cells, changes in tumor size had been measured and the results are depicted in FIG. 2. [formula]

[5] = system: B16-BL6 melanoma cells; assay: In vivo tumor growth, B16-BL6 melanoma in C57BL/6 mice; design: species or system mouse; settings: for inhibition of tumor growth: B16-BL6 in C57BL/6 mice
Experimental: Onto the back of C57BL/6 mice 4-5 weeks old, 10^6 B16-BL6 melanoma cells were subcutaneously transplanted. When the tumors were grown to sizes of 100-250 mm^3, the mice were randomly mixed and divided into 4 groups, each of 6 members, to which drugs were then administered. For Group 1, only a solvent was used, while the novel compound ACRL-B4 represented by the chemical formula 1 was intraperitoneally injected every other day at doses of 30 mg/kg, 15 mg/kg and 5 mg/kg to Groups 2 to 4, respectively, with monitoring of tumor sizes and body weights. The test compound was dissolved in a solvent mixture of 85% physiological saline, 5% DMSO (dimethylsulfoxide) and 10% cremophore.
For the calculation of cancer sizes, the mathematical formula 1 was used, and since the transplantation of cancer cells, changes in tumor size had been measured and the results are depicted in FIG. 3.

[6] = Acute toxicity test on rat upon oral administration; settings: in vivo, 500 mg/kg
Experimental: Using specific pathogen-free (SPF) SD rats, which were six weeks old, the 7,8-dihydro-xanthenone-8-carboxylic acid derivative of the present invention were tested for acute toxicity.
Suspensions of the compound of the present invention in 0.5% methyl cellulose were orally administered once at a dose of 500 mg/kg/15 ml to the rats, which were grouped in threes. […] An autopsy was made of the rats with the naked eye to observe whether their abdominal and thoracic organs were damaged.

[7] = system: smooth muscle myosin light chain kinase; settings: Nakanishi et al., J. Antibiotics 1993; cited from earlier work
[8] = system: protein kinase C; settings: Nakanishi et al., J. Antibiotics 1993; cited from earlier work

**Q.** Which “inhibition of VEGF-induced HUVEC proliferation” value [1] does the source give for `COC(=O)C1c2c(oc3cc(CO)cc(O)c3c2=O)C=CC1O` (stereo not shown) [ACRL-B4, 7,8-dihydro-1,7-dihydroxy-3-hydroxymethyl-xanthenone-8-carboxylic acid methyl ester] here?
**A.** specifically inhibit the VEGF-induced proliferation of HUVEC; also recorded: potent inhibitory activity against the proliferation of HUVEC; also recorded: inhibit the HUVEC proliferation induced by angiogenic factors, especially VEGF

**Q.** What about the “inhibition of bFGF-induced HUVEC proliferation” value [2] of the same molecule?
**A.** inhibit the HUVEC proliferation induced by angiogenic factors

**Q.** And the “No. of egg showing anti-angiogenesis” value ([3]; 1 μg/egg)?
**A.** 10

**Q.** What about the “Inhibition ratio (%)” value ([3]; 1 μg/egg) of the same molecule?
**A.** 71% and 71.4%

**Q.** What about the “No. of egg showing anti-angiogenesis” value ([3]; 5 μg/egg) of the same molecule?
**A.** 9

**Q.** What about the “Inhibition ratio (%)” value ([3]; 5 μg/egg) of the same molecule?
**A.** 90%

**Q.** What about the “inhibition of tumor growth” value ([4]; 5 mg/kg i.p. every other day) of the same molecule?
**A.** 40%

**Q.** And the “inhibition of tumor growth” value ([4]; 15 mg/kg i.p. every other day)?
**A.** 60%

**Q.** And the “inhibition of tumor growth” value ([4]; 30 mg/kg i.p. every other day)?
**A.** 80%

**Q.** What about the “side effects / body weight” value ([4]; 5-30 mg/kg i.p. every other day, 3LL-bearing C57BL/6 mice) of the same molecule?
**A.** did not exhibit toxic effects such as weight loss; also recorded: without causing side effects such as loss of body weight

**Q.** What about the “inhibition of tumor growth” value ([5]; 5 mg/kg i.p. every other day) of the same molecule?
**A.** 40%

**Q.** And the “inhibition of tumor growth” value ([5]; 15 mg/kg i.p. every other day)?
**A.** 50%

**Q.** And the “inhibition of tumor growth” value ([5]; 30 mg/kg i.p. every other day)?
**A.** 65%

**Q.** What about the “side effects / body weight” value ([5]; 5-30 mg/kg i.p. every other day, B16-BL6-bearing C57BL/6 mice) of the same molecule?
**A.** did not exhibit toxic effects such as weight loss; also recorded: without causing side effects such as loss of body weight

**Q.** What about the LD50 ([6]; oral, single dose, SD rats, read-out: lethal dose (LD50)) of the same molecule?
**A.** ≥ 500 mg/kg

**Q.** What about the “death and clinical symptoms” value ([6]; po) of the same molecule?
**A.** Neither sudden death nor noticeable clinical symptoms were detected

**Q.** And the “toxicity signs (weight change, serological tests, serobiochemical tests, corpse examination)” value ([6]; po)?
**A.** no toxicity signs were observed

**Q.** What does the source list for `COC(=O)C12OC1C=Cc1oc3cc(CO)cc(O)c3c(=O)c12` (stereo not shown) [MS-347a]?
**A.** inhibition of smooth muscle myosin light chain kinase [7]: inhibitory activity against smooth muscle myosin light chain kinase; inhibition of protein kinase C [8]: inhibitory activity

**Q.** For `CC1=C(/C=C/C(C)=C/C=C/C(C)=C/C(=O)O)C(C)(C)CCC1` [Positive control, retinoic acid, reference compound], which “No. of egg showing anti-angiogenesis” value ([3]; 1 μg/egg) is on record?
**A.** 6

**Q.** What about the “Inhibition ratio (%)” value ([3]; 1 μg/egg) of the same molecule?
**A.** 75%

**Q.** For `COC(=O)c1c(O)ccc2oc3cc(CO)cc(O)c3c(=O)c12` [sydowinin B], which “inhibition of smooth muscle myosin light chain kinase” value [7] is on record?
**A.** inhibitor of smooth muscle myosin light chain kinase
